# Results from article PMC4319022 (The Journal of Biological Chemistry, 2014).
# Where two headings read alike, the source gives them in different places.
# Key:
# human α7 nAChR [1] = target: T1, human α7 nAChR (Homo sapiens, UniProt P36544); assay: two-electrode voltage clamp, Xenopus oocytes; assay type: cell-based
# T1 construct: gene CHRNA7; full-length subunit cDNA in pSP64GL, cRNA injected in Xenopus laevis oocytes, homopentamer
# Text: two-electrode voltage clamp, Xenopus oocytes on human α7 nAChR
# human α7 nAChR [2] = target: T1, human α7 nAChR; assay: two-electrode voltage clamp, Xenopus oocytes; assay type: cell-based; remark: listed apart in the source
# T1 sequence (P36544 23-502): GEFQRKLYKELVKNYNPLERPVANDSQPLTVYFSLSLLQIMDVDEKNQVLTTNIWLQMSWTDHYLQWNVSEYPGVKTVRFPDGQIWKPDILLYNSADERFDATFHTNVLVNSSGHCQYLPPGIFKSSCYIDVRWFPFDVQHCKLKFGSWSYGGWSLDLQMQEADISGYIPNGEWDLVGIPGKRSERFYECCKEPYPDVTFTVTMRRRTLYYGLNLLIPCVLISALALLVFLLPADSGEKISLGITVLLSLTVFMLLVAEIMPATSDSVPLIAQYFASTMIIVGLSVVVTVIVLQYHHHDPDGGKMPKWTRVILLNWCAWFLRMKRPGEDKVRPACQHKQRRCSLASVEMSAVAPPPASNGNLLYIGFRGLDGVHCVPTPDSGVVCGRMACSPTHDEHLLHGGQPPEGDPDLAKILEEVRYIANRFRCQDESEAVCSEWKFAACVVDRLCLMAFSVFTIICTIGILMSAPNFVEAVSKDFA
SMILES,EC50 (human α7 nAChR [1]; read-out: EC50) [µM],also measured
"Cc1cc(C)c(C2Nc3ccc(S(N)(=O)=O)cc3C3C=CCC32)c(C)c1C (stereo not drawn) [2,3,4,6MP-TQS, cis-trans-4-(2,3,4,6-tetramethylphenyl)-3a,4,5,9b-tetrahydro-3H-cyclopenta[c]quinoline-8-sulfonamide]",9.1 ± 2,
"Cc1ccc(C2Nc3ccc(S(N)(=O)=O)cc3C3C=CCC32)c(C)c1C (stereo not drawn) [2,3,4MP-TQS, cis-cis-4-(2,3,4-trimethylphenyl)-3a,4,5,9b-tetrahydro-3H-cyclopenta[c]quinoline-8-sulfonamide]",9.8 ± 0.8,
"Cc1cc(C)c(C)c(C2Nc3ccc(S(N)(=O)=O)cc3C3C=CCC32)c1 (stereo not drawn) [2,3,5MP-TQS, cis-cis-4-(2,3,5-trimethylphenyl)-3a,4,5,9b-tetrahydro-3H-cyclopenta[c]quinoline-8-sulfonamide]",3.9 ± 0.7,
"Cc1ccc(C)c(C2Nc3ccc(S(N)(=O)=O)cc3C3C=CCC32)c1C (stereo not drawn) [2,3,6MP-TQS, cis-trans-4-(2,3,6-trimethylphenyl)-3a,4,5,9b-tetrahydro-3H-cyclopenta[c]quinoline-8-sulfonamide]",,IC50 (human α7 nAChR [2]): 23 ± 2.8 µM
"Cc1cc(C)c(C2Nc3ccc(S(N)(=O)=O)cc3C3C=CCC32)c(C)c1 (stereo not drawn) [2,4,6MP-TQS, cis-trans-4-mesityl-3a,4,5,9b-tetrahydro-3H-cyclopenta[c]quinoline-8-sulfonamide]",,IC50 (human α7 nAChR [2]): 5.2 ± 0.8 µM
"Cc1ccc(C2Nc3ccc(S(N)(=O)=O)cc3C3C=CCC32)c(C)c1 (stereo not drawn) [2,4MP-TQS, cis-cis-4-(2,4-dimethylphenyl)-3a,4,5,9b-tetrahydro-3H-cyclopenta[c]quinoline-8-sulfonamide]",11 ± 1,
"Cc1cccc(C)c1C1Nc2ccc(S(N)(=O)=O)cc2C2C=CCC21 (stereo not drawn) [2,6MP-TQS, cis-trans-4-(2,6-dimethylphenyl)-3a,4,5,9b-tetrahydro-3H-cyclopenta[c]quinoline-8-sulfonamide]",,IC50 (human α7 nAChR [2]): 43 ± 14 µM
"Cc1ccccc1C1Nc2ccc(S(N)(=O)=O)cc2C2C=CCC21 (stereo not drawn) [2MP-TQS, cis-cis-4-o-tolyl-3a,4,5,9b-tetrahydro-3H-cyclopenta[c]quinoline-8-sulfonamide]",16 ± 1.3,
"Cc1ccc(C2Nc3ccc(S(N)(=O)=O)cc3C3C=CCC32)cc1C (stereo not drawn) [3,4MP-TQS, cis-cis-4-(3,4-dimethylphenyl)-3a,4,5,9b-tetrahydro-3H-cyclopenta[c]quinoline-8-sulfonamide]",,"Imax (human α7 nAChR [1]; 100 μM, allosteric agonist, relative to 3 mM acetylcholine, -60 mV): 7.8 ± 3.0 fold effect"
"Cc1cc(C)cc(C2Nc3ccc(S(N)(=O)=O)cc3C3C=CCC32)c1 (stereo not drawn) [3,5MP-TQS, cis-cis-4-(3,5-dimethylphenyl)-3a,4,5,9b-tetrahydro-3H-cyclopenta[c]quinoline-8-sulfonamide]",3.7 ± 1.2,
"Cc1cccc(C2Nc3ccc(S(N)(=O)=O)cc3C3C=CCC32)c1 (stereo not drawn) [3MP-TQS, cis-cis-4-m-tolyl-3a,4,5,9b-tetrahydro-3H-cyclopenta[c]quinoline-8-sulfonamide]",,"Fold potentiation (human α7 nAChR [1]; allosteric potentiation (type II PAM) of 100 μM acetylcholine, maximal PAM concentration (100 μM, Figure 4), -60 mV): 22 ± 2.1 fold"
"Cc1ccc(C2Nc3ccc(S(N)(=O)=O)cc3C3C=CCC32)cc1 (stereo not drawn) [4MP-TQS, cis-cis-4-p-tolyl-3a,4,5,9b-tetrahydro-3H-cyclopenta[c]quinoline-8-sulfonamide]",27 ± 3.1,
"Cc1c(C)c(C)c(C2Nc3ccc(S(N)(=O)=O)cc3C3C=CCC32)c(C)c1C (stereo not drawn) [PentaMP-TQS, cis-trans-4-(2,3,4,5,6-pentamethylphenyl)-3a,4,5,9b-tetrahydro-3H-cyclopenta[c]quinoline-8-sulfonamide]",,"EC50 (human α7 nAChR [1]; allosteric potentiation (type I PAM) of 100 μM acetylcholine, 10 s preapplication, -60 mV, bell-shaped curve, unreliable): 0.55 ± 0.36 µM"
